Test results published in ChEMBL document CHEMBL1150022, “O-benzyl hydroxyproline as a bioisostere for Phe-Pro: Novel dipeptide thrombin inhibitors” (Bioorg Med Chem Lett, 1996).
Where a SMILES comes first, the peptide text is derived from it. [ ]: non-standard residue; d: D form. The star is where a group is joined. Hydrocinnamoyl = O=C(CCc1ccccc1)*; Hyp = O=C(O)[C@@H]1C[C@@H](O)CN1; Propionyl = CCC(=O)*; Bn = c1ccc(C*)cc1; Ms = CS(=O)(=O)*; CH2Cl = ClC*

Target: Prothrombin (Homo sapiens, UniProt P00734)
Assay: Inhibition of thrombin

IC50 [µM] | SMILES
0.0015 | N=C(N)NCCC[C@H](NC(=O)[C@@H]1CCCN1C(=O)[C@H](N)Cc1ccccc1)C(=O)CCl
0.04 | CC(=O)N1C[C@H](CCc2ccccc2)C[C@H]1C(=O)N[C@@H](CCCN=C(N)N)C(=O)CCl
0.003 | NC(N)=NCCC[C@H](NC(=O)[C@@H]1C[C@@H](OCc2ccccc2)CN1C(=O)[C@H](N)Cc1ccccc1)C(=O)CCl
0.0216 | CCCCO[C@@H]1C[C@@H](C(=O)N[C@@H](CCCNC(=N)N)C(=O)CCl)N(C(C)=O)C1
8.6 | CCN1C[C@H](OCc2ccccc2)C[C@H]1C(=O)N[C@@H](CCCNC(=N)N)C(=O)CCl
0.0072 | N=C(N)NCCC[C@H](NC(=O)[C@@H]1C[C@H](OCc2ccccc2)CN1C(=O)[C@H](N)Cc1ccccc1)C(=O)CCl
0.0049 | CC(=O)N1C[C@H](OCC2CCCCC2)C[C@H]1C(=O)N[C@@H](CCCN=C(N)N)C(=O)CCl
1.35 | CC(=O)N1CCC[C@H]1C(=O)N[C@@H](CCCN=C(N)N)C(=O)CCl (Ac-Pro-Arg-CH2Cl)
0.0317 | N=C(N)NCCC[C@H](NC(=O)[C@@H]1C[C@@H](OCc2ccccc2)CN1C(=O)CCc1ccccc1)C(=O)CCl (Hydrocinnamoyl-[Hyp](Bn)-Arg-CH2Cl)
0.024 | CS(=O)(=O)N1C[C@H](OCc2ccccc2)C[C@H]1C(=O)N[C@@H](CCCNC(=N)N)C(=O)CCl (Ms-[Hyp](Bn)-Arg-CH2Cl)
0.013 | CCC(=O)N1C[C@H](OCc2ccccc2)C[C@H]1C(=O)N[C@@H](CCCN=C(N)N)C(=O)CCl (Propionyl-[Hyp](Bn)-Arg-CH2Cl)

SMILES | IC50 [µM]
CC(=O)N1C[C@H](OCCC(c2ccccc2)c2ccccc2)C[C@H]1C(=O)N[C@@H](CCCN=C(N)N)C(=O)CCl | 0.01
CC(=O)N1C[C@H](OCCCc2ccccc2)C[C@H]1C(=O)N[C@@H](CCCN=C(N)N)C(=O)CCl | 0.014
CC(=O)N1C[C@@H](OCc2ccccc2)C[C@H]1C(=O)N[C@@H](CCCNC(=N)N)C(=O)CCl | 4.6
CC(=O)N1C[C@H](OCc2ccccc2)C[C@H]1C(=O)N[C@@H](CCCNC(=N)N)C(=O)CCl | 0.0009
